Values quoted from earlier work in patent US10526439B2, “High dielectric breakdown strength resins” (priority 2017, dated 2020).

Settings: monomer property, Table IA; species and route not given

| SMILES | Toxicity LD50 [mg/kg] |
| --- | --- |
| C=Cc1ccc(C(C)(C)C)cc1 [Monomer 1, 4-tert butyl styrene] | >2000 |
| C=Cc1ccccc1 [STYRENE, styrene] | >2000 |
